In US9365830B2, “Agents and methods for inhibiting human pluripotent stem cell growth” (VIACYTE, INC., priority 2010, dated 2016):
Structures can show the parent of a compound that is named as a salt. Where two headings read alike, the source gives them in different places.

Legend:
Format in all cases: cell-based, human
hESCs = experiment: Secondary screen, lowest effective dose on hESCs; conditions: lowest concentration that elicited cytotoxicity, range 0.1 to 50 μM, read-out: ED hESC (lowest effective dose)
Protocol: To expand the number of potential candidate hESC cytotoxic and inhibitory compounds, the complete LOPAC1280™ collection (containing 1,280 compounds) was screened. In the primary screen, cytotoxicity was tested on undifferentiated hESCs (about 3×10^4 BG01 cells) in 16 standard 96-well trays, in DC-HAIF defined medium on growth factor-reduced MATRIGEL™ diluted 1:200, which were fed daily (FIG. 7A). 10 μM of each compound was added to the hESCs one day after plating, and the cells were cultured for an additional 2 days. Plates were then fixed and stained for alkaline phosphatase (AP) to identify relative decreases in proliferation or growth of hESCs (as reduced AP staining), indicative of lower proportions of hESCs. See the circled wells in FIG. 7A.
(§1) Using a range of different concentrations from 0.1 to 50 μM, the forty compounds in Table 6 were re-screened (secondary screen) using hESCS and NPCs. The effective dose (ED) was defined as the lowest concentration of a compound that elicited cytotoxicity during the secondary screen. […] The darker wells were indicative of the increased numbers or percentages of proliferating or growing pluripotent stem cells in the wells. In addition, these 40 compounds were screened on differentiating definitive endoderm (DE) cell cultures in 96-well plate impedance assays (described above) to determine which of these compounds were not cytotoxic to definitive endoderm cells at the lowest effective dose on either hESC or NPC. […] See “ACEA DE” column in Table 6.

NPCs = experiment: Secondary screen, lowest effective dose on NPCs; conditions: lowest concentration that elicited cytotoxicity, range 0.1 to 50 μM, read-out: ED NPC (lowest effective dose)
Protocol: In addition, the complete LOPAC1280™ collection was also screened for effects on neural progenitor cells (NPCs) that were derived from the hESCs. Neural progenitors were plated in serum-free MedII conditioned medium at 6×10^4 cells/well and fed daily. Two days after plating, 10 μM of each compound was added and the cells were cultured for an additional 2 days. […] Reduced crystal violet staining was indicative of lower proportions of NPCs. See circled wells in FIG. 7B. The left and right columns of the LOPAC1280™ plates from which the compounds were dispensed were empty and served as untreated controls. […] See Table 6 below listing the name and class of activity of each candidate compound identified in this screen (except chelerythrine chloride, which is listed in Table 5). ChCl was not included in the subsequent round of screening. Therefore only 40 compounds were tested further.
as §1

[1] = tested on: differentiating definitive endoderm (DE) cell cultures; experiment: 96-well plate impedance assay (ACEA) on differentiating definitive endoderm at lowest effective dose; parameters: key: Viable: Compounds that did not appear to be cytotoxic toward differentiating DE cultures were marked as “viable”, meaning that the compound did not affect the survival, growth, proliferation or differentiation of the differentiated cells; conditions: at the lowest effective dose on either hESC or NPC
From the text: The impedance assay on the hESCs using the compounds in Table 4 above gave greater than twenty (20) hits. However, the ideal candidate compound of the present invention should not only be inhibitory or cytotoxic to human pluripotent stem cells, such as hESCs or hIPSCs, but should at the same time have no effect on cell viability of differentiated or differentiating cell populations including Stage 1, 2, 3, 4 and 5 type cells cultures (definitive endoderm, foregut endoderm, posterior foregut, pancreatic endoderm and endocrine cells, respectively). […] Approximately 3×10^4 hES cells were plated per well and grown for 24 hrs in DC-HAIF defined medium (i.e. StemPro® hESC SFM medium (Life Technologies, Carlsbad, Calif.). Stage 1 or definitive endoderm differentiation was then induced by changing the medium and culturing in RPMI, 100 ng/mL Activin A, and 10 ng/mL of FGF2. […] of GSK-3 beta Inhibitor 15 (Calbiochem #361558) as added to the culture for the first 24 hours of differentiation only. 10 μM of each of the candidate compounds were added about 48 hours or 2 days after differentiation was induced (see FIGS. 3 C & D, large arrowhead), and the cells were cultured for an additional 2 days.
as §1

| Compound | minimal effective concentration (hESCs) [µM] | minimal effective concentration (NPCs) [µM] | minimal effective concentration (hESCs; Homo sapiens) [µM] | minimal effective concentration (NPCs; Homo sapiens, 48 h) [µM] | ACEA DE [1] |
| --- | --- | --- | --- | --- | --- |
| COc1cc2c(cc1O)CC[C@@H]1[C@@H]2CC[C@]2(C)[C@@H](O)CC[C@@H]12 [2-methoxyestradiol] | 10 | 1 |  |  |  |
| Oc1cc(-c2ccccc2)nc2nc(Cl)ccc12 [7-Chloro-4-hydroxy-2-phenyl-1,8-naphthyridine] |  |  | 5 | 5 | Viable |
| CC[n+]1c(/C=C/C=C2/N(C)c3ccccc3C2(C)C)sc2ccccc21.[I-] [AC-93253 iodide] | 5 | <0.1 |  |  |  |
| N [Ammonium] | 10 | >50 |  |  | Viable |
| COc1cc(NS(C)(=O)=O)ccc1Nc1c2ccccc2nc2ccccc12 [Amsacrine hydrochloride] |  |  | 1 | 0.1 |  |
| C[C@H]1CCC/C=C/[C@@H]2C[C@H](O)C[C@H]2[C@H](O)/C=C/C(=O)O1 [Brefeldin A from Penicillium] | <0.1 | <0.1 |  |  |  |
| O=C(/C=C/c1ccc(O)c(O)c1)OCCc1ccccc1 [Caffeic acid phenethyl ester] |  |  | < 0.1 | 5 | Viable |
| CNc1ccc2oc(C[C@H]3O[C@@]4(CC[C@H]3C)O[C@H]([C@H](C)C(=O)c3ccc[nH]3)[C@H](C)C[C@H]4C)nc2c1C(=O)O [Calcimycin] |  |  | 1 | < 0.1 |  |
| Clc1ccc(C(c2ccc(Cl)cc2)n2cc[n+](CC(OCc3ccc(Cl)cc3Cl)c3ccc(Cl)cc3Cl)c2)cc1 (stereo not drawn) [Calmidazolium chloride] |  |  | 5 | 5 | Viable |
| Oc1cc2c(cc1O)CN(C(=S)NCCc1ccc(Cl)cc1)CCC2 [Capsazepine] |  |  | 5 | 25 | Viable |
| Cc1cc(N)c2ccccc2[n+]1CCCCCCCCCC[n+]1c(C)cc(N)c2ccccc21 [Dequalinium chloride hydrate] |  |  | 5 | 5 |  |
| C[C@@H]1O[C@@H](O[C@H]2C[C@@H](O)[C@]3(CO)[C@H]4[C@H](O)C[C@]5(C)[C@@H]([C@@H]6COC(=O)C6)CC[C@]5(O)[C@@H]4CC[C@]3(O)C2)[C@H](O)[C@H](O)[C@H]1O [Dihydroouabain] | 1 | <0.1 |  |  |  |
| c1ccc2c(c1)[I+]c1ccccc1-2 [Diphenyleneiodonium chloride] |  |  | 0.1 | < 0.1 |  |
| O=c1[nH]c2ccccc2n1CCCN1CCC(n2c(=O)[nH]c3cc(Cl)ccc32)CC1 [Domperidone] |  |  | 25 | 0.1 | Viable |
| CC[C@H]1CN2CCc3cc(OC)c(OC)cc3[C@@H]2C[C@@H]1C[C@H]1NCCc2cc(OC)c(OC)cc21 [Emetine dihydrochloride hydrate] |  |  | < 0.1 | 0.1 |  |
| CNC(=O)[C@H]1O[C@@H](n2cnc3c(NCc4cccc(I)c4)ncnc32)[C@H](O)[C@@H]1O [IB-MECA] | 50 | >50 |  |  |  |
| Ic1ccccc1CNC1C2CCN(CC2)C1C(c1ccccc1)c1ccccc1.O=C(O)C(=O)O [L-703,606 oxalate] | 25 | >50 |  |  |  |
| COC(=O)C1=C(C)NC(C)=C(C(=O)OC(C)(C)CN(C)CCC(c2ccccc2)c2ccccc2)C1c1cccc([N+](=O)[O-])c1 (stereo not drawn) [Lercanidipine hydrochloride] |  |  | 10 | 10 |  |

| Compound | minimal effective concentration (hESCs) [µM] | minimal effective concentration (NPCs) [µM] | minimal effective concentration (hESCs; Homo sapiens) [µM] | minimal effective concentration (NPCs; Homo sapiens, 48 h) [µM] | ACEA DE [1] |
| --- | --- | --- | --- | --- | --- |
| CC[N+](CC)(CC)CCOc1ccc(/C=C/c2ccccc2)cc1 [MG 624] |  |  | 0.1 | 5 | Viable |
| COCC(=O)O[C@]1(CCN(C)CCCc2nc3ccccc3[nH]2)CCc2cc(F)ccc2[C@@H]1C(C)C [Mibefradil dihydrochloride] |  |  | 25 | 25 |  |
| CCCCCCCC/C=C\CCCCCCCC(=O)NCCc1ccc(O)c(O)c1 [N-Oleoyldopamine] |  |  | 5 | 1 | Viable |
| CC(C)[C@H]1c2ccc(F)cc2CC[C@@]1(CCN(C)CCCc1nc2ccccc2[nH]1)OC(=O)C1CC1 [NNC 55-0396] | 25 | 5 |  |  |  |
| C[C@@H]1O[C@@H](O[C@H]2C[C@@H](O)[C@]3(CO)[C@H]4[C@H](O)C[C@]5(C)[C@@H](C6=CC(=O)OC6)CC[C@]5(O)[C@@H]4CC[C@]3(O)C2)[C@H](O)[C@H](O)[C@H]1O [Ouabain] |  |  | < 0.1 | < 0.1 |  |
| Nc1ccc(CCN2CCN(c3cccc(C(F)(F)F)c3)CC2)cc1 [PAPP] | 25 | >50 |  |  |  |
| N=C(N)c1ccc(OCCCCCOc2ccc(C(=N)N)cc2)cc1 [Pentamidine isethionate] |  |  | 1 | 25 | Viable |
| COc1cc([C@@H]2c3cc4c(cc3[C@H](O)[C@H]3COC(=O)[C@H]23)OCO4)cc(OC)c1OC [Podophyllotoxin] |  |  | < 0.1 |  | Viable |
| C=CC1=C(C)c2cc3[nH]c(cc4nc(cc5[nH]c(cc1n2)c(C)c5CCC(=O)O)C(CCC(=O)O)=C4C)c(C)c3C=C [Protoporphyrin IX disodium] |  |  | 10 | > 50 | Viable |
| Oc1ccccc1O [Pyrocatechol] |  |  | 5 | 5 | Viable |
| CCN(CC)CCCC(C)Nc1c2ccc(Cl)cc2nc2ccc(OC)cc12 (stereo not drawn) [Quinacrine dihydrochloride] |  |  | 10 | 25 | Viable |
| CC1=C(/C=C/C(C)=C/C=C/C(C)=C/C(=O)Nc2ccc(O)cc2)C(C)(C)CCC1 [Retinoic acid p-hydroxyanilide] | 1 | 5 |  |  | Viable |
| Cc1nc(-c2ccc(-c3ccc(C(=O)N4CCc5cc6c(cc54)C4(CCN(C)CC4)CO6)cc3)c(C)c2)no1 [SB 224289 hydrochloride] |  |  | 25 | 50 |  |
| COc1ccc(CCCOC(Cn2ccnc2)c2ccc(OC)cc2)cc1 (stereo not drawn) [SKF 96365] |  |  | 25 | 5 | Viable |
| CC(C)(C)c1ccc(C(O)CCCN2CCC(C(O)(c3ccccc3)c3ccccc3)CC2)cc1 (stereo not drawn) [Terfenadine] |  |  | 25 | 10 |  |
| COc1ccc2c(c1)CC[C@@H]1[C@@H]2CC[C@]2(C)[C@@H](NCCCCCCN3C(=O)CCC3=O)CC[C@@H]12 [U-73343] | 10 | 5 |  |  | Viable |
| CC1(C)CCC2=C(O1)c1ccccc1C(=O)C2=O [beta-Lapachone] |  |  | 5 | 5 |  |
| Vinblastine sulfate salt | <0.1 | <0.1 |  |  |  |
